Assay: method code SF, from DOI: 10.1016/0223-5234(96)88244-4
Conditions: pH 7.4

| logD | Structure (SMILES) |
| --- | --- |
| 1.07 | N#CN=C(NS(=O)(=O)c1cnccc1NC1CCCCC1)N1CCCC1 |

Assay: not given
Conditions: not given

| Structure (SMILES) | logP |
| --- | --- |
| CCNC(=NC#N)NS(=O)(=O)c1cnccc1NC1CCCCCC1 | 0.75 |
| N#CN=C(NS(=O)(=O)c1cnccc1NC1CCCCCC1)N1CCCC1 | 1.65 |
| CC(C)CNc1ccncc1S(=O)(=O)NC(=NC#N)NC(C)C | 0.1 |
| CC(C)NC(=NC#N)NS(=O)(=O)c1cnccc1NC1CC1 | -0.77 |
| Cc1cccc(Nc2ccncc2S(=O)(=O)NC(=NC#N)NC(C)C)c1 | 0.86 |
| CC(C)NC(=NC#N)NS(=O)(=O)c1cnccc1Nc1cccc(I)c1 | 1.51 |
| CC(C)NC(=NC#N)NS(=O)(=O)c1cnccc1NC1CCCCCCC1 | 1.8 |
| CC(C)NC(=NC#N)NS(=O)(=O)c1cnccc1NC1CCCCCCCCCCC1 | 3.73 |
| CCNc1ccncc1S(=O)(=O)NC(=NC#N)NC(C)C | -1.02 |
| Cc1ccc(Nc2ccncc2S(=O)(=O)NC(=NC#N)NC(C)C)cc1 | 0.91 |
| CC(C)NC(=NC#N)NS(=O)(=O)c1cnccc1Nc1ccc(Cl)cc1 | 1.37 |
| N#CN=C(NS(=O)(=O)c1cnccc1NC1CCCCCCC1)N1CCCC1 | 2.15 |
| CC(C)NC(=NC#N)NS(=O)(=O)c1cnccc1Nc1cccc(Cl)c1 | 1.14 |
| CNc1ccncc1S(=O)(=O)NC(=NC#N)NC(C)C | -1.43 |

Next, values leading:

| logP | Structure (SMILES) |
| --- | --- |
| 0.2 | CC(C)NC(=NC#N)NS(=O)(=O)c1cnccc1NC1CCCC1 |
| 1.27 | CC(C)NC(=NC#N)NS(=O)(=O)c1cnccc1Nc1cccc(Br)c1 |
| 0.16 | CCNC(=NC#N)NS(=O)(=O)c1cnccc1NC1CCCCC1 |
| 0.67 | Cc1ccccc1Nc1ccncc1S(=O)(=O)NC(=NC#N)NC(C)C |
| 0.75 | CC(C)NC(=NC#N)NS(=O)(=O)c1cnccc1NC1CCCCC1 |
| -0.43 | CCCNc1ccncc1S(=O)(=O)NC(=NC#N)NC(C)C |
| 0.59 | CC(C)N=C(NC#N)NS(=O)(=O)c1cnccc1Nc1cccc(F)c1 |

Source: the SangsterLogP compilation
